Laboratory results reported in ChEMBL document CHEMBL3098003, “Structure-based design of 2-aminopyridine oxazolidinones as potent and selective tankyrase inhibitors” (ACS Med Chem Lett, 2013).
Blank lines part the entries; values can stand above or below the compound they belong to. Active and inactive are the calls of the source. The calls are words filed in the database; no cut-off is given here.

Experiments:
[1] = AUC in CD1 mouse at 30 mg/kg, po; type: ADME, organism-based; parameters: dose 30 mg/kg, route oral; details: plasma
[2] = Cmax in CD1 mouse at 30 mg/kg, po; type: ADME, organism-based; parameters: dose 30 mg/kg, route oral; details: in vivo
[3] = Half life in CD1 mouse at 30 mg/kg, po; type: ADME, organism-based; parameters: dose 30 mg/kg, route oral; details: in vivo
[4] = Oral bioavailability in Sprague-Dawley rat at 2 mg/kg; type: ADME, organism-based; details: in vivo
[5] = AUC in Sprague-Dawley rat at 2 mg/kg, po; type: ADME, organism-based; parameters: dose 2 mg/kg, route oral; details: plasma
[6] = Half life in Sprague-Dawley rat at 2 mg/kg, po; type: ADME, organism-based; parameters: dose 2 mg/kg, route oral; details: in vivo
[7] = Cmax in Sprague-Dawley rat at 2 mg/kg, po; type: ADME, organism-based; parameters: dose 2 mg/kg, route oral; details: in vivo
[8] = Elimination half life in Sprague-Dawley rat at 0.5 mg/kg, iv; type: ADME, organism-based; parameters: dose 0.5 mg/kg, route intravenous; details: in vivo, read-out: beta t1/2 (converted)
[9] = Clearance in Sprague-Dawley rat at 0.5 mg/kg, iv; type: ADME, organism-based; parameters: dose 0.5 mg/kg, route intravenous; details: in vivo
[10] = Volume of distribution at steady state in Sprague-Dawley rat at 0.5 mg/kg, iv; type: ADME, organism-based; parameters: dose 0.5 mg/kg, route intravenous; details: in vivo, read-out: Vdss
[11] = test system: Salmonella typhimurium; assay: Genotoxicity in Salmonella typhimurium by microAmes assay; type: toxicity, organism-based; details: salmonella enterica subsp. enterica serovar typhimurium
[12] = target: TGF-beta receptor type-2 (Homo sapiens) (UniProt P37173); assay: Inhibition of TGFBR2 (unknown origin) at 1 uM after 1 hr
[13] = test system: Salmonella typhimurium; assay: Genotoxicity in Salmonella typhimurium by microAmes assay in presence of S9 fraction; type: toxicity, organism-based; details: salmonella enterica subsp. enterica serovar typhimurium
[14] = target: Mitogen-activated protein kinase kinase kinase 9 (Homo sapiens) (UniProt P80192); assay: Inhibition of MAP3K9 (unknown origin) at 1 uM after 1 hr
Sequence of Mitogen-activated protein kinase kinase kinase 9 (Homo sapiens) (P80192 whole entry, looked up): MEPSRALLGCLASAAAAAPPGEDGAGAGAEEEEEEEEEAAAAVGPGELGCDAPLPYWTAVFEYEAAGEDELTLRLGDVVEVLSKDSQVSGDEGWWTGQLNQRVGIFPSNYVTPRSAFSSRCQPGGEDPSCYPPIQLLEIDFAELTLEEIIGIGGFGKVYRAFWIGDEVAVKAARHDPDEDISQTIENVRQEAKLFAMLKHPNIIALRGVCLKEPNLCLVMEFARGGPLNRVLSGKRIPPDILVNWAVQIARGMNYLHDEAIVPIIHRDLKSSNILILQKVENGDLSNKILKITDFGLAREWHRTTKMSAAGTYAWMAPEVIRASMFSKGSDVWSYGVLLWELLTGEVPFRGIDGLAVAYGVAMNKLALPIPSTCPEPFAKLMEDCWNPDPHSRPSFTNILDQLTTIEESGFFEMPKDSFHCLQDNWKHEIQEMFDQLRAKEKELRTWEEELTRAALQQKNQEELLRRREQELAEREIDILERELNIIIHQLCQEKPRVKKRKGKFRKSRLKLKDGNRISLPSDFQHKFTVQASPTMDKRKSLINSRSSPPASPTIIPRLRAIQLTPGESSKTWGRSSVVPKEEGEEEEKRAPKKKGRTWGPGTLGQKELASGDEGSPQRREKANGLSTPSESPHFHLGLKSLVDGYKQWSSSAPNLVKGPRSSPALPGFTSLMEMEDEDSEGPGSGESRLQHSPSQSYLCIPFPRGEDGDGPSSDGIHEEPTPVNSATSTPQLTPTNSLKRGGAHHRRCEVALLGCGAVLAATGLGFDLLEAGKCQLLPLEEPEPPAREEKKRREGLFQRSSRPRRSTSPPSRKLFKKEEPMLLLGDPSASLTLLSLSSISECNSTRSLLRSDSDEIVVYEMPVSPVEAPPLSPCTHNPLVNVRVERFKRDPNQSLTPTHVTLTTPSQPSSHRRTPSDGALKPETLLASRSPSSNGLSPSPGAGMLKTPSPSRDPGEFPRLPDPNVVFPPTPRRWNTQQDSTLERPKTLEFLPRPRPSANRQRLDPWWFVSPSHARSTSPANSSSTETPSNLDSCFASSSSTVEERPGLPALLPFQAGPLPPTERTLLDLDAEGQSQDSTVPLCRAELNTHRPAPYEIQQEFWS

[15] = target: Interleukin-1 receptor-associated kinase 4 (Homo sapiens) (UniProt Q9NWZ3); assay: Inhibition of IRAK4 (unknown origin) at 1 uM after 1 hr
[16] = target: Non-receptor tyrosine-protein kinase TYK2 (Homo sapiens) (UniProt P29597); assay: Inhibition of TYK2 (unknown origin) at 1 uM after 1 hr
[17] = target: Proto-oncogene tyrosine-protein kinase Src (Homo sapiens) (UniProt P12931); assay: Inhibition of SRC (unknown origin) at 1 uM after 1 hr
[18] = target: Tyrosine-protein kinase Lck (Homo sapiens) (UniProt P06239); assay: Inhibition of LCK (unknown origin) at 1 uM after 1 hr
[19] = target: Tyrosine-protein kinase JAK2 (Homo sapiens) (UniProt O60674); assay: Inhibition of JAK2 (unknown origin) at 1 uM after 1 hr
[20] = target: Tyrosine-protein kinase Fyn (Homo sapiens) (UniProt P06241); assay: Inhibition of FYN (unknown origin) at 1 uM after 1 hr
Sequence of Tyrosine-protein kinase Fyn (Homo sapiens) (P06241 2-537 limits assumed): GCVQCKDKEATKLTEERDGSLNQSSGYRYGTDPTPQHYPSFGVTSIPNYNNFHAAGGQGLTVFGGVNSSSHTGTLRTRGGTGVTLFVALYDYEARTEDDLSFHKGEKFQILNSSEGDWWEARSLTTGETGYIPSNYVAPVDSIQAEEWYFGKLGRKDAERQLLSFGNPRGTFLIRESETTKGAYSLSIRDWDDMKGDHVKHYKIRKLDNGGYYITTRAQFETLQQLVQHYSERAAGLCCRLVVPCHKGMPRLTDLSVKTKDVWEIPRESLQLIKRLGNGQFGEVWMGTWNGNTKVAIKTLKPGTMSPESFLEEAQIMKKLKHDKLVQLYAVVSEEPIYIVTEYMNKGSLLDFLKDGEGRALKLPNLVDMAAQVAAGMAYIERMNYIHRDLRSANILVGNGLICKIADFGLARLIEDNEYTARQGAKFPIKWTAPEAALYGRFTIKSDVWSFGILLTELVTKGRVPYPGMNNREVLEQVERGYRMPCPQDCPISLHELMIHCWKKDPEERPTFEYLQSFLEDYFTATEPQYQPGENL

[21] = target: Ephrin type-B receptor 3 (Homo sapiens) (UniProt P54753); assay: Inhibition of EPHB3 (unknown origin) at 1 uM after 1 hr
Sequence of Ephrin type-B receptor 3 (Homo sapiens) (P54753 whole entry, the tested form may be a part): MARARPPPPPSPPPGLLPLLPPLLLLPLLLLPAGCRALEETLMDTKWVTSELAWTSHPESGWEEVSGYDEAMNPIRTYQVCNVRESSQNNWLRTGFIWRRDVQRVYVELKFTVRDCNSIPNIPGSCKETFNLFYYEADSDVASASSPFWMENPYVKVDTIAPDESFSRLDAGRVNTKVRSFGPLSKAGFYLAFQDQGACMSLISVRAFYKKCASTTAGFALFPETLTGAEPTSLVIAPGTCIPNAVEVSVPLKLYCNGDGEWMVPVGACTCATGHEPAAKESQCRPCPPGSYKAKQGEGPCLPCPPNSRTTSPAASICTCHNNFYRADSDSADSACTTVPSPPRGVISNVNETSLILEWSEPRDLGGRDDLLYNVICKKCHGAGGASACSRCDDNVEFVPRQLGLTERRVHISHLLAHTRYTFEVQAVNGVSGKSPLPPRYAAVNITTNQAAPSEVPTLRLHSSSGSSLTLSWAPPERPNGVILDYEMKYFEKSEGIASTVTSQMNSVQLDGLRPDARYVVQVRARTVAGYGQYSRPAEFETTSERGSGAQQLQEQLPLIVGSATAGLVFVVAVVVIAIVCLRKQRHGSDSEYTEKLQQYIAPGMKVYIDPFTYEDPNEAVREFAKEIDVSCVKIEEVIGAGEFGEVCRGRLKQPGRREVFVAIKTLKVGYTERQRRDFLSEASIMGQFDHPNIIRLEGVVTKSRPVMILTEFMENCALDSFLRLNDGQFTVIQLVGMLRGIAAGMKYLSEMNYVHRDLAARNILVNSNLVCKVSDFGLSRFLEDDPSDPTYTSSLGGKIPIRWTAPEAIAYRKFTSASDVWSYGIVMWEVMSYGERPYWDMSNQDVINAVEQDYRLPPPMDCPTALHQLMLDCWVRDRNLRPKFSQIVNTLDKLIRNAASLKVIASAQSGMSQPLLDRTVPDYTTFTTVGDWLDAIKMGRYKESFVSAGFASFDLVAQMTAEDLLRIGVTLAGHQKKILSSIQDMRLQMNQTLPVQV

[22] = target: Epithelial discoidin domain-containing receptor 1 (Homo sapiens) (UniProt Q08345); assay: Inhibition of DDR1 (unknown origin) at 1 uM after 1 hr relative to control
[23] = target: Tyrosine-protein kinase ABL1 (Homo sapiens) (UniProt P00519); assay: Inhibition of ABL1 (unknown origin) at 1 uM after 1 hr
[24] = target: Serine/threonine-protein kinase 3 (Homo sapiens) (UniProt Q13188); assay: Inhibition of STK3 (unknown origin) at 1 uM after 1 hr
[25] = target: Mitogen-activated protein kinase kinase kinase kinase 4 (Homo sapiens) (UniProt O95819); assay: Inhibition of MAP4K4 (unknown origin) at 1 uM after 1 hr
[26] = target: Mitogen-activated protein kinase kinase kinase 1 (Homo sapiens) (UniProt Q13233); assay: Inhibition of MAP3K1 (unknown origin) at 1 uM after 1 hr
[27] = target: Wee1-like protein kinase (Homo sapiens) (UniProt P30291); assay: Inhibition of WEE1 (unknown origin) at 1 uM after 1 hr
[28] = target: Serine/threonine-protein kinase PLK4 (Homo sapiens) (UniProt O00444); assay: Inhibition of PLK4 (unknown origin) at 1 uM after 1 hr
[29] = target: Serine/threonine-protein kinase Nek4 (Homo sapiens) (UniProt P51957); assay: Inhibition of NEK4 (unknown origin) at 1 uM after 1 hr
Sequence of Serine/threonine-protein kinase Nek4 (Homo sapiens) (P51957 whole entry, looked up): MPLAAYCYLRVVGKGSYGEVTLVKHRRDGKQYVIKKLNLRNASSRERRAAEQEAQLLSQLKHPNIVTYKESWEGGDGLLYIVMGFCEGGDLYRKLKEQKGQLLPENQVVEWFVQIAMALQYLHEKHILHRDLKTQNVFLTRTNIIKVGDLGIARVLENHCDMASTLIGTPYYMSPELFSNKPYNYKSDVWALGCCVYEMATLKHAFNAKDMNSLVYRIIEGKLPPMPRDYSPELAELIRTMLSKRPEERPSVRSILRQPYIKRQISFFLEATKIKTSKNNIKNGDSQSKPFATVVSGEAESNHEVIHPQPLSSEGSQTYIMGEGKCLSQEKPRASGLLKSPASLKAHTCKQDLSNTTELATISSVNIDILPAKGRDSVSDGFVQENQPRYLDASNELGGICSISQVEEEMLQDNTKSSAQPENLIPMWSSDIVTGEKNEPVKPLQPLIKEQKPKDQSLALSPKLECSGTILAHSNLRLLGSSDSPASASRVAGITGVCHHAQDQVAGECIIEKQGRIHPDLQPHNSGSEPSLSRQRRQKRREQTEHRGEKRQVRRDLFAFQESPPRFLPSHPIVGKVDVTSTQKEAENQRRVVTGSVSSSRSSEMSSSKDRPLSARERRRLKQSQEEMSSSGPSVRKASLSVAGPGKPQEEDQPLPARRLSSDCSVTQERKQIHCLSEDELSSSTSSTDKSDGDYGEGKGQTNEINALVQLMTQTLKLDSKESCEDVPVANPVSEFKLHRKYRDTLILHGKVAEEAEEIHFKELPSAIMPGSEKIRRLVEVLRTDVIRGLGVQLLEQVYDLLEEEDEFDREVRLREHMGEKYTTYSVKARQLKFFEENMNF

[30] = target: Interferon-induced, double-stranded RNA-activated protein kinase (Homo sapiens) (UniProt P19525); assay: Inhibition of EIF2AK2 (unknown origin) at 1 uM after 1 hr
[31] = target: Phosphatidylinositol 4,5-bisphosphate 3-kinase catalytic subunit delta isoform (Homo sapiens) (UniProt O00329); assay: Inhibition of PIK3CD (unknown origin) at 1 uM after 1 hr
[32] = target: Mitogen-activated protein kinase 14 (Homo sapiens) (UniProt Q16539); assay: Inhibition of MAPK14 (unknown origin) at 1 uM after 1 hr
Sequence of Mitogen-activated protein kinase 14 (Homo sapiens) (Q16539 whole entry): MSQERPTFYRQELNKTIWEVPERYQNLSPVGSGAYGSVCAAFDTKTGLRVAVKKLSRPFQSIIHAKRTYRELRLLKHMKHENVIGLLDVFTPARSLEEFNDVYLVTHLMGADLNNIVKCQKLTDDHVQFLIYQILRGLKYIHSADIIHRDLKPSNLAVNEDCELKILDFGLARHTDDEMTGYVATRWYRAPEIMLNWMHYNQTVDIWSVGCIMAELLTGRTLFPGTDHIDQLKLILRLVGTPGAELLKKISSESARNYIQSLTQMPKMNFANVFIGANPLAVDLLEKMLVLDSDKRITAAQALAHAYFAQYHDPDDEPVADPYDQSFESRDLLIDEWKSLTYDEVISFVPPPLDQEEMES

[33] = target: Homeodomain-interacting protein kinase 1 (Homo sapiens) (UniProt Q86Z02); assay: Inhibition of HIPK1 (unknown origin) at 1 uM after 1 hr
Sequence of Homeodomain-interacting protein kinase 1 (Homo sapiens) (Q86Z02 whole entry, looked up): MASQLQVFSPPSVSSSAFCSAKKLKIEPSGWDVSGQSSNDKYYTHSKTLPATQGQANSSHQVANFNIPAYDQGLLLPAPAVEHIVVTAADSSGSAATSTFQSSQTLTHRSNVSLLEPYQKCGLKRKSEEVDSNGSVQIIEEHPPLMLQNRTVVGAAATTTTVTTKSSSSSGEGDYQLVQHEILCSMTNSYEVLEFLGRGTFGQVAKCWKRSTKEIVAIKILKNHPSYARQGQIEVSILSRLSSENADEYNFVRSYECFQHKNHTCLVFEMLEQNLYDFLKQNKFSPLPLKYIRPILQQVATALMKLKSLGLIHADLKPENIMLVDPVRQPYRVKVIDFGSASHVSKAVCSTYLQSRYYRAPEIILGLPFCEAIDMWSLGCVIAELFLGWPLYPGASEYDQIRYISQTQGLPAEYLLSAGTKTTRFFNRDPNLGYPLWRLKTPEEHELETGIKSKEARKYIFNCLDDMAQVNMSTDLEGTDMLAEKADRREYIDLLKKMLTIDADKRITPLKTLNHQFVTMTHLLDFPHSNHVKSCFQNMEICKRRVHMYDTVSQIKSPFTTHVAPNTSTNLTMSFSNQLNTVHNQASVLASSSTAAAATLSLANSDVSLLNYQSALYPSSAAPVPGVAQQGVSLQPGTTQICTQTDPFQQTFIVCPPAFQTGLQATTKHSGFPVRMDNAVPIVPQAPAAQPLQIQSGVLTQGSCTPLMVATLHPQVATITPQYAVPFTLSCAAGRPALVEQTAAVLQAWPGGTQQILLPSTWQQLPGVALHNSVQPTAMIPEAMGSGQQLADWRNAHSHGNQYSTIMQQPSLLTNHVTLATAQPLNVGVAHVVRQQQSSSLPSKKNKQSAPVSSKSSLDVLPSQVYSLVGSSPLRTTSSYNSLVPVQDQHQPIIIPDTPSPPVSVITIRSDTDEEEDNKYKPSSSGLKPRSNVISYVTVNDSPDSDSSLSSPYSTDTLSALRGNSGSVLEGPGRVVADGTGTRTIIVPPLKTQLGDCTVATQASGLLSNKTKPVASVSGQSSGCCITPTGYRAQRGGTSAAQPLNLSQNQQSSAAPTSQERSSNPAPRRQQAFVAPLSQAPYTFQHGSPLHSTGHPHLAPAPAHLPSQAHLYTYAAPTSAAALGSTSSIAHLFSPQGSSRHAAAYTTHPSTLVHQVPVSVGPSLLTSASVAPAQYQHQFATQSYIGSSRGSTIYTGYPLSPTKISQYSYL

[34] = target: Dual specificity protein kinase CLK4 (Homo sapiens) (UniProt Q9HAZ1); assay: Inhibition of CLK4 (unknown origin) at 1 uM after 1 hr
[35] = target: Cyclin-dependent kinase 2 (Homo sapiens) (UniProt P24941); assay: Inhibition of CDK2 (unknown origin) at 1 uM after 1 hr
[36] = target: Casein kinase I isoform delta (Homo sapiens) (UniProt P48730); assay: Inhibition of CSNK1D (unknown origin) at 1 uM after 1 hr
[37] = target: Serine/threonine-protein kinase D2 (Homo sapiens) (UniProt Q9BZL6); assay: Inhibition of PRKD2 (unknown origin) at 1 uM after 1 hr
[38] = target: MAP kinase-interacting serine/threonine-protein kinase 1 (Homo sapiens) (UniProt Q9BUB5); assay: Inhibition of MKNK1 (unknown origin) at 1 uM after 1 hr
[39] = target: Death-associated protein kinase 1 (Homo sapiens) (UniProt P53355); assay: Inhibition of DAPK1 (unknown origin) at 1 uM after 1 hr
[40] = target: Calcium/calmodulin-dependent protein kinase type II subunit delta (Homo sapiens) (UniProt Q13557); assay: Inhibition of CAMK2D (unknown origin) at 1 uM after 1 hr
[41] = target: Ribosomal protein S6 kinase alpha-1 (Homo sapiens) (UniProt Q15418); assay: Inhibition of RPS6KA1 (unknown origin) at 1 uM after 1 hr
[42] = target: Rho-associated protein kinase 2 (Homo sapiens) (UniProt O75116); assay: Inhibition of ROCK2 (unknown origin) at 1 uM after 1 hr
[43] = target: cAMP-dependent protein kinase catalytic subunit alpha (Homo sapiens) (UniProt P17612); assay: Inhibition of PRKACA (unknown origin) at 1 uM after 1 hr
[44] = target: Poly [ADP-ribose] polymerase 2 (Homo sapiens, UniProt Q9UGN5); assay: Inhibition of PARP2 (unknown origin)
[45] = target: Poly [ADP-ribose] polymerase 1 (Homo sapiens, UniProt P09874); assay: Inhibition of PARP1 (unknown origin)

AUC [1]: 63.3 µM·h
Cmax [2]: 7.88 µM
half-life [3]: 3.7 h
bioavailability [4]: 29%
AUC [5]: 2.71 µM·h
half-life [6]: 4.6 h
Cmax [7]: 0.37 µM
half-life [8]: 4.3 h
clearance [9]: 8.67 mL/min/kg
Vd [10]: 2.32 L/kg
inhibition [12]: inactive
inhibition [14]: inactive
inhibition [15]: inactive
inhibition [16]: inactive
inhibition [17]: inactive
inhibition [18]: inactive
inhibition [19]: inactive
inhibition [20]: inactive
inhibition [21]: inactive
inhibition [22]: inactive
inhibition [23]: inactive
inhibition [24]: inactive
inhibition [25]: inactive
inhibition [26]: inactive
inhibition [27]: inactive
inhibition [28]: inactive
inhibition [29]: inactive
inhibition [30]: inactive
inhibition [31]: inactive
inhibition [32]: inactive
inhibition [33]: inactive
inhibition [34]: inactive
inhibition [35]: inactive
inhibition [36]: inactive
inhibition [37]: inactive
inhibition [38]: inactive
inhibition [40]: inactive
inhibition [41]: inactive
inhibition [42]: inactive
inhibition [43]: inactive
IC50 [44]: > 170 µM
IC50 [45]: > 85 µM
SMILES: CC1(C)OC(=O)N(c2ccc(-c3cnc(N)c(-c4ncccn4)c3)cc2)[C@H]1c1ccccc1
Activity [11]: Toxic
Activity [13]: Toxic
inhibition [39]: inactive

SMILES: CC1(C)OC(=O)N([C@H]2CC[C@H](c3cnc(N)c(-c4ncccn4)c3)CC2)[C@H]1c1ccccc1
AUC [1]: 36.3 µM·h
Cmax [2]: 6.09 µM
half-life [3]: 3.5 h
bioavailability [4]: 33%
AUC [5]: 1.98 µM·h
half-life [6]: 2.9 h
Cmax [7]: 0.45 µM
half-life [8]: 3.6 h
clearance [9]: 12.5 mL/min/kg
Vd [10]: 2.85 L/kg
Activity [11]: Non-toxic
inhibition [12]: inactive
Activity [13]: Non-toxic
inhibition [14]: inactive
inhibition [15]: inactive
inhibition [16]: inactive
inhibition [17]: inactive
inhibition [18]: inactive
inhibition [19]: inactive
inhibition [20]: inactive
inhibition [21]: inactive
inhibition [22]: 18%
inhibition [23]: inactive
inhibition [24]: inactive
inhibition [25]: inactive
inhibition [26]: inactive
inhibition [27]: inactive
inhibition [28]: inactive
inhibition [29]: inactive
inhibition [30]: inactive
inhibition [31]: inactive
inhibition [32]: inactive
inhibition [33]: inactive
inhibition [34]: inactive
inhibition [35]: inactive
inhibition [36]: inactive
inhibition [37]: inactive
inhibition [38]: inactive
inhibition [39]: inactive
inhibition [40]: inactive
inhibition [41]: inactive
inhibition [42]: inactive
inhibition [43]: inactive
IC50 [44]: > 170 µM
IC50 [45]: > 85 µM
